Patent US7033593B2, “Immunogen comprising an HIV envelope protein, a ligand and H2 peptide” (priority 2000, dated 2006)
“Also recorded” adds a separate entry of the source. Like-named read-outs stand apart in the source and are kept apart here.

Key:
89.6 gp120 = 89.6 gp120 (Human immunodeficiency virus type 1 group M subtype B, UniProt Q73372); type: binding, HIV-1 89.6
Text: Biotinylated DP178 (FIG. 28A), scrDP178 (FIG. 28B) and scrDP107 (not shown) were attached to a SA-sensor chip through biotin-streptavidin interactions. 200–300 RU of each peptide was attached to individual flow cells of the SA chip. The scrDP107 surface was used as in-line reference subtraction of non-specific and bulk effect. All data shown here were derived after subtraction of signals from this reference surface. […] Data are a representative experiment of 3 performed.
The scrDP107 surface was used as a reference surface for subtracting bulk and non-specific binding. […] Soluble gp120 proteins, mabs or gp120 proteins pre-incubated with mabs were then injected at 20 μl/min for 2–3 min over each of the peptide-SA surface. Binding data was acquired following in-line reference subtraction of binding from the scrDP107 (HR-1) surface.
In these experiments (the “SA-chip assay”), biotinylated HR-2 peptides DP178 and scrDP178 were immobilized on adjacent flow cells of a streptavidin sensor chip (SA chip). […] The non-specific and bulk effect was measured over scrDP107 surface and this surface was used for automated in-line reference subtraction.

[1] = system: sCD4-gp140 (HIV 89.6 gp140); test: SPR binding of HR-2 peptides to sCD4-gp140 complex
Protocol: SPR biosensor measurements were determined on a BIACORE 3000 (BIACORE Inc., Uppsala, Sweden) instrument. […] Binding of proteins and peptides was monitored in real-time at 25° C. and with a continuous flow of PBS, pH 7.4 at […]. Analyte (proteins and peptides) were removed and the sensor surfaces were regenerated following each cycle of binding by single or duplicate […] of regeneration solution (10 mM glycine-HCl, pH 2.5 or 10 mM NaOH).
All analyses were performed using the non-linear fit method of O'Shannessy et al. (O'Shannessy et al, Anal. Biochem. 205:132–136 (1992)) and the BIAevaluation 3.0 software (BIACORE Inc). Rate and equilibrium constants were derived from curve fitting to the Langmuir equation for a simple bimolecular interaction (A+B=AB).
A blank chip served as an in-line reference surface for subtraction of non-specific binding and bulk responses.
Surface Plasmon Resonance Biosensor Measurements. SPR biosensor measurements were determined on a BIACORE 3000 (BIACORE Inc., Uppsala, Sweden) instrument. […] A blank in-line reference surface (activated and de-activated for amine coupling) was used to subtract non-specific or bulk responses. Binding of proteins and peptides (biotinylated or free DP178, T649Q26L, DP178-scrambled) was monitored in real-time at 25° C. with a continuous flow of PBS (150 mM NaCl, 0.005% surfactant p20), pH 7.4 at 10–30 μl/min. Analyte (proteins and peptides) were removed and the sensor surfaces were regenerated following each cycle of binding by single or duplicate 5–10 μl pulses of regeneration solution (10 mM glycine-HCl, pH 2.5 or 10 mM NaOH).

[2] = A32-induced gp120, two-component dissociation

89.6 gp120, sequence (Q73372 32-508): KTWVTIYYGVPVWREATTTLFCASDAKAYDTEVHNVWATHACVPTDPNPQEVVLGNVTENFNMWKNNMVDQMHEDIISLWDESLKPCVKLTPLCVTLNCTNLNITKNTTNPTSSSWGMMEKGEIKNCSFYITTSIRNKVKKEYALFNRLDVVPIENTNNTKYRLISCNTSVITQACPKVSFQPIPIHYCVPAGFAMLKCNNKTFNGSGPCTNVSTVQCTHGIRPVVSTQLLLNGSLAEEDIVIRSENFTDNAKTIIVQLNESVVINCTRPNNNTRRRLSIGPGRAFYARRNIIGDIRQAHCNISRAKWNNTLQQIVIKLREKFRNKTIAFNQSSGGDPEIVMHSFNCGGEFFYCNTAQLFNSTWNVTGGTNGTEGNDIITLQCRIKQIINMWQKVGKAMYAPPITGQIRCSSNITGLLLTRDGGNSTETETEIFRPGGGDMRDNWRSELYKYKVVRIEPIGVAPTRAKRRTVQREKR

enfuvirtide
binding higher than expected due to mass effect only (89.6 gp120; +A32): 3 fold
faster off-rate (89.6 gp120; [2]): 0.020 s⁻¹
slower off-rate (89.6 gp120; [2]): 0.0016 s⁻¹
binding signal of A32-gp120 over peptide surface (89.6 gp120; gp120 pre-incubated with A32 (+A32)): ~400 RU
binding to sCD4-gp140 surface (in words) ([1]; SPR): much higher binding; also recorded: bound specifically
Kd ([1]; Scatchard plot, read-out: Keq (equilibrium binding constant)): 1700 nM
kd (off-rate) ([1]; cleaved gp140 after sCD4): 0.0056 s⁻¹
Kd ([1]; sCD4-gp140 complexes, without CCR5-D1, read-out: Kd): 700 nM
Keq stronger than for recombinant gp41 ([1]; sCD4-gp140 vs gp41): 10 fold
Rm (maximal binding at equilibrium) ([1]; with sCD4): 320 RU
increase of Rm by soluble CD4 ([1]; with vs without sCD4): ~10 fold
